Experimental findings from patent US20140228540A1, “POLYPEPTIDES THAT BIND TISSUE INHIBITOR OF METALLOPROTEINASE TYPE THREE (TIMP-3), COMPOSITIONS AND METHODS” (Amgen Inc., priority 2009, published 2014) are described below.

One assay deals with HTB-94 cells. As to the kind of experiment: Accumulation of TIMP-3 in the medium of cultured HTB-94 cells. In kind it is cell-based. The procedure:
This example describes an assay to evaluate the accumulation of TIMP-3 in the medium of cultured cells. HTB-94™ cells (a chondrocytic cell line available from the American Type Culture Collection, Manassas, Va.) are plated to 24-well tissue culture plates at 1×10̂5 cells per well in 1 ml growth medium (RPM11640, 10% FBS, 1% PSG), and incubated at 37 C, 5% CO2 overnight. The cells are then washed once with PBS, and the wells are replenished with 250 microL serum-free medium (RPM11640, 1% PSG; designated SF in the tables below) to which is added the polypeptide being tested or a control (for example medium containing heparin, 1 mg/ml). Proteins to be tested are diluted to appropriate concentrations, for example as shown in the Tables below, and added to the cells. Cells are then incubated at 37 C, 5% CO2 for two additional days, day 2 conditioned medium (CM) samples are collected and clarified by centrifugation (i.e., for 5 minutes at 10K RPM) and the supernatant fluid is collected and stored at −20 C until assayed. Analysis is done on 100 microL CM samples, either by Western blot or by using a standard human TIMP-3 ELISA as per the manufacturer's protocol (R&D Systems Inc., Minneapolis, Minn.).

The subject of assay [1] is biotinylated recombinant human or mouse TIMP-3. As to the kind of experiment: TIMP-3 AlphaScreen binding assay. Here is the method:
Peptides were also evaluated by AlphaScreen® (Amplified Luminescent Proximity Homogeneous Assay; PerkinElmer, Waltham, Mass.) a very sensitive non-radioactive homogeneous assay technology that allows the screening of a large range of biological interactions and activities, substantially according to the manufacturer's instructions. Briefly, all dilutions are made in AlphaScreen® Buffer: [40 mM HEPES pH 7.5, 100 mM NaCl, 1 mM CaCl2, 0.1% BSA, 0.05% Tween-20]. The LRP-1 peptides are titrated in a separate polypropylene 96-well plate (Falcon) starting at 4 microM concentration and then diluted serially 3-fold for 12-points, with the last point buffer only. First 2 microL/well of protein titration curve is added to white, small volume, 384-well assay plate (Greiner Bio-One, Stonehouse, UK) in duplicate. Next, 2 microL of biotinylated (AFS, in-house conjmicroGation) recombinant human or mouse TIMP-3, is added at 12 nM (or 3 nM final assay concentration) to the assay plate. Lastly, in subdued light 4 microL of a mixture of streptavidin donor beads, anti-mouse IgG acceptor beads (PerkinElmer) both diluted to 20 microG/mL (10 microG/mL final assay concentration) and 2 nM (1 nM final concentration) rat-anti-HA (clone3F10)-HRP (Roche Diagnostics) is added to the plates. Plates containing 8 microL final assay volume are covered with TopSeal A (to prevent evaporation), spun quickly at 1000 rpm, and incubated overnight (covered with foil to prevent light exposure) before reading on Fusion plate reader (PerkinElmer) using AlphaScreen® parameters (excitation 680 nm and emission 520-620 nm). Data is analyzed using GraphPad Prism 4.01 software. Binding to TIMP-3 is reported as total signal (cps).

For a further assay, the target named is TIMP-3. The assay can be described thus: Binding ELISA of LRP-1 peptides to TIMP-3 (Table 2; format and species not specified). On the set-up: species or system human or mouse.
Setting [2] is: Assay 2, read-out: Binding ELISA EC50 (nm) Assay 2.
[3] abbreviates: Assay 1, read-out: Binding ELISA EC50 (nm) Assay 1.

Like-named read-outs stand apart in the source and are kept apart here.

As to “Cluster III: LRP-1 peptide, amino acids 2524- (end not printed)”, in the assay on HTB-94 cells, the “Accumulation of TIMP-3 in conditioned medium by Western blot” value was “did not result in significant accumulation”.
For the molecule “LA3-4: LRP-1 peptide multimer, amino acids 854-930”, in assay [1], the “AlphaScreen total signal (cps) Assay 1” value is 9,000 cps and the “AlphaScreen total signal (cps) Assay 2” value is 3,500 cps.
Consider “LA3-5: LRP-1 peptide multimer, amino acids 854-975”, for which the “TIMP-3 (ng/ml) in conditioned medium” value in the assay with HTB-94 cells (Table 7, peptides 2 microM) is 4.22 ng/mL. Also, in assay [1], the “AlphaScreen total signal (cps) Assay 1” value was 4,000 cps and the “AlphaScreen total signal (cps) Assay 2” value is 9,000 cps.
For the molecule “LA3: LRP-1 peptide monomer, amino acids 854-894”, in the assay on HTB-94 cells (Table 6, peptides 2 microM), the “TIMP-3 (ng/ml) in conditioned medium” value worked out at 0.60 ng/mL. Further, in assay [1], the “AlphaScreen total signal (cps) Assay 1” value was 2,200 cps and the “AlphaScreen total signal (cps) Assay 2” value is 2,000 cps.
For “LA4-5: LRP-1 peptide multimer, amino acids 895-975”, the “TIMP-3 (ng/ml) in conditioned medium” value in the assay with HTB-94 cells (Table 7, peptides 2 microM) worked out at 2.68 ng/mL. Further, in assay [1], the “AlphaScreen total signal (cps) Assay 1” value is 2,200 cps and the “AlphaScreen total signal (cps) Assay 2” value is 2,000 cps.
As to “LA5-7: LRP-1 peptide multimer, amino acids 931-1061”, in assay [1], the “AlphaScreen total signal (cps) Assay 1” value is 2,000 cps and the “AlphaScreen total signal (cps) Assay 2” value is listed as 8,000 cps.
With “LA5: LRP-1 peptide monomer, amino acids 931-975”, the EC50 at TIMP-3 (setting [2]) is 1080 nM. In addition, in the assay on HTB-94 cells (Table 6, peptides 2 microM), the “TIMP-3 (ng/ml) in conditioned medium” value amounted to 0.94 ng/mL. Moreover, in assay [1], the “AlphaScreen total signal (cps) Assay 1” value is given as 2,200 cps and the “AlphaScreen total signal (cps) Assay 2” value is reported as 2,000 cps.
As to “LA6: LRP-1 peptide monomer, amino acids 976-1014”, the “TIMP-3 (ng/ml) in conditioned medium” value in the assay with HTB-94 cells (Table 6, peptides 2 microM) is 1.07 ng/mL. The “AlphaScreen total signal (cps) Assay 1” value in assay [1] was 2,200 cps.
The matching figures for “LA16: LRP-1 peptide monomer, amino acids 2734-2773”: 0.94 ng/mL and 2,200 cps.
As for “LA17: LRP-1 peptide monomer, amino acids 2774-2817”, the EC50 at TIMP-3 (setting [2]) is greater than 5000 nM. In the assay with HTB-94 cells (Table 6, peptides 2 microM), the “TIMP-3 (ng/ml) in conditioned medium” value was 1.06 ng/mL. The “AlphaScreen total signal (cps) Assay 1” value in assay [1] was 2,200 cps.
In the case of “LA18-20: LRP-1 peptide multimer, amino acids 2818- (end not printed)”, at TIMP-3 (setting [3]), the concentration giving a half-maximal response (EC50) was roughly 300 nM. The “AlphaScreen total signal (cps) Assay 1” value in assay [1] is 3,000 cps.
Turning to “LA18: LRP-1 peptide monomer, amino acids 2818-2857”, the 50% effective concentration (EC50) on TIMP-3 (setting [2]) is greater than 10000 nM. Further, the “TIMP-3 (ng/ml) in conditioned medium” value with HTB-94 cells (Table 6, peptides 2 microM) is 1.11 ng/mL. For the same molecule, the “AlphaScreen total signal (cps) Assay 1” value in assay [1] was 2,200 cps.
As for “LA21: LRP-1 peptide monomer, amino acids 3334-3373”, the “TIMP-3 (ng/ml) in conditioned medium” value in the assay on HTB-94 cells (Table 6, peptides 2 microM) amounted to 1.82 ng/mL. Moreover, in assay [1], the “AlphaScreen total signal (cps) Assay 1” value was 2,200 cps.
The matching figures for “LA22: LRP-1 peptide monomer, amino acids 3374-3412”: 0.96 ng/mL and 2,200 cps.
As for “LA23-24: LRP-1 peptide multimer, amino acids 3413-3493”, the “TIMP-3 (ng/ml) in conditioned medium” value in the assay with HTB-94 cells (Table 7, peptides 2 microM) is 1.38 ng/mL. Further, in assay [1], the “AlphaScreen total signal (cps) Assay 1” value is recorded as 2,200 cps and the “AlphaScreen total signal (cps) Assay 2” value is 2,000 cps.
Turning to “LA24-25: LRP-1 peptide multimer, amino acids 3453-3535”, the “TIMP-3 (ng/ml) in conditioned medium” value with HTB-94 cells (Table 7, peptides 2 microM) stood at 2.48 ng/mL. Further, in assay [1], the “AlphaScreen total signal (cps) Assay 1” value is given as 290,000 cps and the “AlphaScreen total signal (cps) Assay 2” value is 130,000 cps.
For “LA24-26: LRP-1 peptide multimer, amino acids 3453- (end not printed)” the same measures were 10.38 ng/mL, 150,000 cps and 120,000 cps.
As to “LA24: LRP-1 peptide monomer, amino acids 3453-3493”, the “TIMP-3 (ng/ml) in conditioned medium” value in the assay on HTB-94 cells (Table 6, peptides 2 microM) amounted to 0.41 ng/mL. Further, in assay [1], the “AlphaScreen total signal (cps) Assay 1” value is given as 2,200 cps and the “AlphaScreen total signal (cps) Assay 2” value is listed as 2,000 cps.
“LA25-26: LRP-1 peptide multimer, amino acids printed as 3594-3574”: the “TIMP-3 (ng/ml) in conditioned medium” value in the assay with HTB-94 cells (Table 7, peptides 2 microM) came to 9.30 ng/mL. In assay [1], the “AlphaScreen total signal (cps) Assay 1” value is recorded as 20,000 cps and the “AlphaScreen total signal (cps) Assay 2” value is 5,000 cps.
For “LA25: LRP-1 peptide monomer, amino acids 3494-3535” the same measures were 1.24 ng/mL, 5,000 cps and 2,000 cps.
In the case of “LA26: LRP-1 peptide monomer, amino acids 3536-3574”, in the assay with HTB-94 cells (Table 7, peptides 2 microM), the “TIMP-3 (ng/ml) in conditioned medium” value came to 1.01 ng/mL. Moreover, the “AlphaScreen total signal (cps) Assay 1” value in assay [1] is 2,200 cps.
Consider “LA27: LRP-1 peptide monomer, amino acids 3575-3612”, for which the “TIMP-3 (ng/ml) in conditioned medium” value in the assay with HTB-94 cells (Table 7, peptides 2 microM) turned out to be 0.65 ng/mL. Moreover, in assay [1], the “AlphaScreen total signal (cps) Assay 1” value was 2,200 cps.

B1: LA13-15: LRP-1 peptide multimer, amino acids 2605- (end not printed) (protein)
chain: CGVGEFRCRDGTCIGNSSRCNQFVDCEDASDEMNCSATDCSSYFRLGVKGVLFQPCERTSLCYAPSWVCDGANDCGDYSDERDCPGVKRPRCPLNYFACPSGRCIPMSWTCDKEDDCEHGEDETHCNKF
With B1, in assay [1], the “AlphaScreen total signal (cps) Assay 1” value is given as 1,200 cps.

B2: Cluster I: LRP-1 peptide, amino acids 27-114 of LRP-1 (SEQ ID NO:1) (protein, listed as Homo sapiens)
chain: CSPKQFACRDQITCISKGWRCDGERDCPDGSDEAPEICPQSKAQRCQPNEHNCLGTELCVPMSRLCNGVQDCMDGSDEGPHCRELQGN
B2: the “TIMP-3 (ng/ml) in conditioned medium” value amounted to 1.02 ng/mL in the assay on HTB-94 cells (Table 5, polypeptide 0.5 microM); 0.86 ng/mL with HTB-94 cells (Table 5, polypeptide 1 microM); 0.81 ng/mL in the assay with HTB-94 cells (Table 5, polypeptide 2 microM); 0.65 ng/mL in the assay on HTB-94 cells (Table 6, peptides 2 microM); 0.87 ng/mL with HTB-94 cells (Table 7, peptides 2 microM); 1.41 ng/mL in the assay on HTB-94 cells (Table 8, polypeptide 0.5 microM). The “TIMP-3 (ng/ml) in conditioned medium” value in the assay with HTB-94 cells (Table 8, polypeptide 1 microM) worked out at 1.19 ng/mL; in the assay with HTB-94 cells (Table 8, polypeptide 2 microM), 1.44 ng/mL. Besides, the “Accumulation of TIMP-3 in conditioned medium by Western blot” value in the assay with HTB-94 cells was “did not result in significant accumulation”.

B3: LA3-10: LRP-1 peptide multimer, not listed in Table 1 (protein)
chain: CQPGEFACANSRCIQERWKCDGDNDCLDNSDEAPALCHQHTCPSDRFKCENNRCIPNRWLCDGDNDCGNSEDESNATCSARTCPPNQFSCASGRCIPISWTCDLDDDCGDRSDESASCAYPTCFPLTQFTCNNGRCININWRCDNDNDCGDNSDEAGCSHSCSSTQFKCNSGRCIPEHWTCDGDNDCGDYSDETHANCTNQATRPPGGCHTDEFQCRLDGLCIPLRWRCDGDTDCMDSSDEKSCEGVTHVCDPSVKFGCKDSARCISKAWVCDGDNDCEDNSDEENCESLACRPPSHPCANNTSVCLPPDKLCDGNDDCGDGSDEGELCDQ
Take B3: the half-maximal effective concentration (EC50) is 45.5 nM at TIMP-3 (setting [3]) and 32.5 nM on TIMP-3 (Assay 3, read-out: Binding ELISA EC50 (nm) Assay 3). Also, the “AlphaScreen total signal (cps) Assay 2” value in assay [1] is 100,000 cps.

B4: LA15-17: LRP-1 peptide multimer, amino acids 2696- (end not printed) (protein)
chain: CPLNYFACPSGRCIPMSWTCDKEDDCEHGEDETHCNKFCSEAQFECQNHRCISKQWLCDGSDDCGDGSDEAAHCEGKTCGPSSFSCPGTHVCVPERWLCDGDKDCADGADESIAAGCLYNST
On to B4, for which the “TIMP-3 (ng/ml) in conditioned medium” value with HTB-94 cells (Table 7, peptides 2 microM) is 4.70 ng/mL. For the same molecule, in assay [1], the “AlphaScreen total signal (cps) Assay 1” value was 90,000 cps and the “AlphaScreen total signal (cps) Assay 2” value is recorded as 70,000 cps.
